Key:
[1] = test system: male adult Sprague Dawley rats; test: Sleep-wake organization in rats, polysomnographic recording (EEG, EOG, EMG, body movement) for 16 hours after acute i.p. administration; type: in vivo, rat; conditions: rats; for Duration (min) Active wake / Duration (min) Deep sleep / Duration (min) Light sleep / Duration (min) Passive wake / Duration (min) REM sleep / Duration (min) intermediate stage / ISWS/TST (%) / Latency (min) ISWS / Latency (min) REM sleep / Latency (min) dSWS / REMS/TST (%) / Shifts (number) Shift from ISWS to AW / Shifts (number) Shift from ISWS to PW / Shifts (number) Shift from REMS to AW / Shifts (number) Shift from REMS to PW / Shifts (number) Shift from dSWS to AW / Shifts (number) Shift from dSWS to PW / Total sleep time TST / dSWS/TST (%): 16 hours recording period
Mice = test: Spontaneous Locomotor Activity in Mice and Rats model (mice); type: in vivo, mouse
Rats = test: Spontaneous Locomotor Activity in Mice and Rats model (rats); type: in vivo, rat
[2] = 3 mg/kg i.p., 16 hours recording
[3] = 10 mg/kg i.p., first 90 minutes of the recording period
[4] = 30 mg/kg i.p., 16 hours recording
[5] = 30 mg/kg i.p., vs vehicle, 16-h post-injection period

SMILES: NC(=O)OCC(N)Cc1ccccc1 [R228060, (R)-(beta-amino-benzenepropyl) carbamate]
- increased drive to wakefulness from deep sleep [1, 2]: +15%
- increased drive to wakefulness from light sleep [1, 2]: +46%
- Duration (min) Active wake ([1]; 3 mg/kg i.p.): 290.0 min
- Duration (min) Deep sleep ([1]; 3 mg/kg i.p.): 125.0 min
- Duration (min) Light sleep ([1]; 3 mg/kg i.p.): 374.7 min
- Duration (min) Passive wake ([1]; 3 mg/kg i.p.): 79.5 min
- Duration (min) REM sleep ([1]; 3 mg/kg i.p.): 84.0 min
- Duration (min) intermediate stage ([1]; 3 mg/kg i.p.): 2.9 min
- ISWS/TST (%) ([1]; 3 mg/kg i.p.): 64.3 ± 3.3%
- Latency (min) ISWS ([1]; 3 mg/kg i.p.): 15.6 ± 4.1 min
- Latency (min) REM sleep ([1]; 3 mg/kg i.p.): 66.0 ± 11.8 min
- Latency (min) dSWS ([1]; 3 mg/kg i.p.): 42.0 ± 8.5 min
- REMS/TST (%) ([1]; 3 mg/kg i.p.): 14.4 ± 1.0%
- Shifts (number) Shift from ISWS to AW ([1]; 3 mg/kg i.p.): 217.8 number
- Shifts (number) Shift from ISWS to PW ([1]; 3 mg/kg i.p.): 78.1 number
- Shifts (number) Shift from REMS to AW ([1]; 3 mg/kg i.p.): 78.0 number
- Shifts (number) Shift from REMS to PW ([1]; 3 mg/kg i.p.): 3.7 number
- Shifts (number) Shift from dSWS to AW ([1]; 3 mg/kg i.p.): 9.7 number
- Shifts (number) Shift from dSWS to PW ([1]; 3 mg/kg i.p.): 6.6 number
- Total sleep time TST ([1]; 3 mg/kg i.p.): 586.6 ± 20.0 min
- dSWS/TST (%) ([1]; 3 mg/kg i.p.): 20.8 ± 3.8%
- change in total time spent in light sleep ([1]; 3 mg/kg, vs vehicle, 16 hours recording): +26%
- increase in shifts from REM sleep towards active wakefulness ([1]; 10 mg/kg i.p., 16 hours recording): +16%
- Duration (min) Active wake ([1]; 10 mg/kg i.p.): 305.5 min
- Duration (min) Deep sleep ([1]; 10 mg/kg i.p.): 104.0 min
- Duration (min) Light sleep ([1]; 10 mg/kg i.p.): 366.6 min
- Duration (min) Passive wake ([1]; 10 mg/kg i.p.): 73.4 min
- Duration (min) REM sleep ([1]; 10 mg/kg i.p.): 102.3 min
- Duration (min) intermediate stage ([1]; 10 mg/kg i.p.): 5.2 min
- ISWS/TST (%) ([1]; 10 mg/kg i.p.): 63.5 ± 2.7%
- Latency (min) ISWS ([1]; 10 mg/kg i.p.): 30.4 ± 7.9 min
- Latency (min) REM sleep ([1]; 10 mg/kg i.p.): 87.5 ± 14.5 min
- Latency (min) dSWS ([1]; 10 mg/kg i.p.): 127.2 ± 67.1 min
- REMS/TST (%) ([1]; 10 mg/kg i.p.): 17.8 ± 1.0%
- Shifts (number) Shift from ISWS to AW ([1]; 10 mg/kg i.p.): 204.5 number
- Shifts (number) Shift from ISWS to PW ([1]; 10 mg/kg i.p.): 84.4 number
- Shifts (number) Shift from REMS to AW ([1]; 10 mg/kg i.p.): 94.1 number
- Shifts (number) Shift from REMS to PW ([1]; 10 mg/kg i.p.): 8.9 number
- Shifts (number) Shift from dSWS to AW ([1]; 10 mg/kg i.p.): 4.2 number
- Shifts (number) Shift from dSWS to PW ([1]; 10 mg/kg i.p.): 12.5 number
- Total sleep time TST ([1]; 10 mg/kg i.p.): 578.1 ± 22.6 min
- dSWS/TST (%) ([1]; 10 mg/kg i.p.): 17.7 ± 3.1%
- deep sleep duration [1, 3]: significant decrease
- time spent in active wakefulness [1, 3]: increase
- change in total time spent in light sleep ([1]; 10 mg/kg, vs vehicle, 16 hours recording): +24%
- overall profile of effects compared with amphetamine at 1 mg/kg (effect pattern, size and duration) ([1]; 30 mg/kg): remarkably similar
- rebound effect (increase in time spent in deep sleep), hours following administration ([1]; 30 mg/kg): 4 to 10 h
- mean durations of the sleep wake states (active wakefulness, passive wakefulness, light sleep, REM sleep) ([1]; 30 mg/kg i.p.): not modified
- change in number of REM sleep epochs [1, 4]: −24%
- change in number of active wake epochs [1, 4]: +19%
- change in number of light sleep epochs [1, 4]: −23%
- change in number of passive wakefulness epochs [1, 4]: −30%
- Duration (min) Active wake ([1]; 30 mg/kg i.p.): 371.6 min
- Duration (min) Deep sleep ([1]; 30 mg/kg i.p.): 214.9 min
- Duration (min) Light sleep ([1]; 30 mg/kg i.p.): 235.8 min
- Duration (min) Passive wake ([1]; 30 mg/kg i.p.): 57.3 min
- Duration (min) REM sleep ([1]; 30 mg/kg i.p.): 72.9 min
- Duration (min) intermediate stage ([1]; 30 mg/kg i.p.): 4.0 min
- ISWS/TST (%) ([1]; 30 mg/kg i.p.): 44.9 ± 2.9%
- Latency (min) ISWS ([1]; 30 mg/kg i.p.): 73.6 ± 25.7 min
- Latency (min) REM sleep ([1]; 30 mg/kg i.p.): 251.8 ± 32.0 min
- Latency (min) dSWS ([1]; 30 mg/kg i.p.): 174.6 ± 12.3 min
- REMS/TST (%) ([1]; 30 mg/kg i.p.): 13.7 ± 1.3 %
- Shifts (number) Shift from ISWS to AW ([1]; 30 mg/kg i.p.): 221.9 number
- Shifts (number) Shift from ISWS to PW ([1]; 30 mg/kg i.p.): 74.2 number
- Shifts (number) Shift from REMS to AW ([1]; 30 mg/kg i.p.): 65.1 number
- Shifts (number) Shift from REMS to PW ([1]; 30 mg/kg i.p.): 4.1 number
- Shifts (number) Shift from dSWS to AW ([1]; 30 mg/kg i.p.): 8.7 number
- Shifts (number) Shift from dSWS to PW ([1]; 30 mg/kg i.p.): 17.6 number
- Total sleep time TST ([1]; 30 mg/kg i.p.): 527.0 ± 7.9 min
- dSWS/TST (%) ([1]; 30 mg/kg i.p.): 39.2 ± 2.9 %
- active wakefulness ([1]; 30 mg/kg i.p., first 3 hours following the administration): significant enhancement
- change in total time spent in REM sleep [1, 5]: −25%
- change in total time spent in active wakefulness [1, 5]: +19%
- change in total time spent in light sleep [1, 5]: −20%
- change in total time spent in passive wakefulness [1, 5]: −29%
- active wakefulness at the expense of time spent in light sleep, deep sleep and REM sleep ([1]; 30 mg/kg, first 3 to 4 hours after the administration): strongly increased
- changes in vigilance states ([1]; 3 and 10 mg/kg): Minor changes
- duration of central activity ([1]; after intraperitoneal injection): at least 4 hours
- peak in effect, time post administration ([1]; i.p.): around 2 hours
- onset of activity ([1]; i.p., time following administration): ~30 min
- Spontaneous Locomotor Activity (Mice): stimulant or energizing effects
- Spontaneous Locomotor Activity (Rats): stimulant or energizing effects
